# EP0562832A1, “Indole and indazole derivatives, for the treatment and prophylaxis of cerebral disorders, their preparation and their use” (priority 1992, dated 1993)
# Where a name gives a salt, the structure may show the parent alone.
# Target: T1, acetylcholinesterase (Mus musculus, UniProt P21836)
# T1 construct: The mouse brain was homogenised by means of a 5-fold amount of a 100 mM phosphate buffer (pH 8.0) to prepare an enzyme sample; from tissue; host or cells: brain of male ddY mice, 5 to 7 weeks old (Japan SLC)
# T1 sequence (P21836 32-614): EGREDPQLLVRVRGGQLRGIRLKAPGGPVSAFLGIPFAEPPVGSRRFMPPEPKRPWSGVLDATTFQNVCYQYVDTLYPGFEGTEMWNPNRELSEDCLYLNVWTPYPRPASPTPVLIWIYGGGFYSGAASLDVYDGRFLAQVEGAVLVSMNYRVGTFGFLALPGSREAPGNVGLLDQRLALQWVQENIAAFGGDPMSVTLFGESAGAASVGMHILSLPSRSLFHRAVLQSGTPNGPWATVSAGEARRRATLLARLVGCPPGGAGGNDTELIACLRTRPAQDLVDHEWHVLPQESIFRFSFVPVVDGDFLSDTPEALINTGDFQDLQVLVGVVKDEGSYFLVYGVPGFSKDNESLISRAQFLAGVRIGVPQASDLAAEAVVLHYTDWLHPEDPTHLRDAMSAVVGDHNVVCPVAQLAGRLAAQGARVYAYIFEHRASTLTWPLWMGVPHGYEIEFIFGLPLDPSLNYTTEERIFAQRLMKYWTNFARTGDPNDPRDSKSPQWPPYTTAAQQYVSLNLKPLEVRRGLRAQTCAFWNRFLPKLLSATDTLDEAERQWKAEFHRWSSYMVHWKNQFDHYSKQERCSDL
# Assay: Assay of acetylcholinesterase inhibitory activity (Elman's method, mouse brain homogenate)
# Assay type: biochemical
row,SMILES,IC50
1,CCc1ccc2c(C(=O)CCC3CCN(Cc4ccccc4)CC3)cn(C)c2c1 [1-16],4 nM
2,"Cn1cc(C(=O)CCC2CCN(Cc3cccc(F)c3)CC2)c2cc(F)ccc21 [1-315, 1-Methyl-3-{3-[1-(3-fluorobenzyl)-4-piperidyl]propionyl}-5-fluoroindole oxalate]",2.3 nM
3,Cc1ccc2c(c1)c(C(=O)CCC1CCN(Cc3ccccc3)CC1)nn2C [2-8],13 nM
4,Cn1nc(C(=O)C=CC2CCN(Cc3ccccc3)CC2)c2c(Cl)cccc21 [2-23],11 nM
5,Cn1nc(C(=O)CCC2CCN(Cc3ccccc3)CC2)c2c(Cl)cccc21 [2-24],10 nM
6,"Cn1cc(C(=O)CCC2CCN(Cc3ccccc3)CC2)c2ccccc21 [Compound No. 1-2, 1-Methyl-3-[3-(1-benzyl-4-piperidyl)propionyl]indole]",3.3 nM
7,"Cn1cc(C(=O)CCC2CCN(Cc3ccccc3)CC2)c2ccccc21 [Compound No. 1-4, 1-Methyl-3-[3-(1-benzyl-4-piperidyl)propionyl]indole oxalate]",10 nM
8,"Cn1cc(C(=O)CCC2CCN(Cc3ccccc3)CC2)c2cc(Cl)ccc21 [Compound No. 1-28, 1-Methyl-3-[3-(1-benzyl-4-piperidyl)propionyl]-5-chloroindole]",4 nM
9,"Cn1cc(C(=O)CCC2CCN(Cc3ccccc3)CC2)c2ccc(Cl)cc21 [Compound No. 1-30, 1-Methyl-3-[3-(1-benzyl-4-piperidyl)propionyl]-6-chloroindole]",9 nM
10,"Cn1cc(C(=O)CCC2CCN(Cc3ccccc3)CC2)c2cc(F)ccc21 [Compound No. 1-40, 1-Methyl-3-[3-(1-benzyl-4-piperidyl)propionyl]-5-fluoroindole]",4 nM
11,"Cn1cc(C(=O)CCC2CCN(Cc3cccc(F)c3)CC2)c2ccccc21 [Compound No. 1-78, 1-Methyl-3-{3-[1-(3-fluorobenzyl)-4-piperidyl]propionyl}indole]",8 nM
12,"Cn1cc(C(=O)CCC2CCN(Cc3cccc(Cl)c3)CC2)c2ccccc21 [Compound No. 1-85, 1-Methyl-3-{3-[1-(3-chlorobenzyl)-4-piperidyl]propionyl}indole hydrochloride]",6.5 nM
13,"Cn1cc(C(=O)CCC2CCN(Cc3cccs3)CC2)c2ccccc21 [Compound No. 1-116, 1-Methyl-3-{3-[1-(2-thienylmethyl)-4-piperidyl]propionyl}indole]",10 nM
14,"Cn1cc(C(=O)CCC2CCN(Cc3cccc(Cl)c3)CC2)c2cc(Cl)ccc21 [Compound No. 1-304, 1-Methyl-3-{3-[1-(3-chlorobenzyl)-4-piperidyl]propionyl}-5-chloroindole hydrochloride]",7.5 nM
15,"Cn1cc(C(=O)CCC2CCN(Cc3cccc(F)c3)CC2)c2cc(Cl)ccc21 [Compound No. 1-309, 1-Methyl-3-{3-[1-(3-fluorobenzyl)-4-piperidyl]propionyl}-5-chloroindole]",8.2 nM
16,"Cn1cc(C(=O)CCC2CCN(Cc3cccc(F)c3)CC2)c2cc(F)ccc21 [Compound No. 1-313, 1-Methyl-3-{3-[1-(3-fluorobenzyl)-4-piperidyl]propionyl}-5-fluoroindole]",2 nM
17,"Cn1cc(C(=O)CCC2CCN(Cc3cccc(F)c3)CC2)c2cc(F)ccc21 [Compound No. 1-314, 1-Methyl-3-{3-[1-(3-fluorobenzyl)-4-piperidyl]propionyl}-5-fluoroindole hydrochloride]",3.4 nM
18,"Cn1nc(C(=O)CCC2CCN(Cc3ccccc3)CC2)c2ccccc21 [Compound No. 2-2, 1-Methyl-3-[3-(1-benzyl-4-piperidyl)propionyl]indazole]",10 nM
19,"Cn1nc(C(=O)CCC2CCN(Cc3ccccc3)CC2)c2ccccc21 [Compound No. 2-3, 1-Methyl-3-[3-(1-benzyl-4-piperidyl)propionyl]indazole hydrochloride]",12 nM
20,Cc1ccc2c(C(=O)C=CC3CCN(Cc4ccccc4)CC3)nn(C)c2c1 [Compound No. 2-9],14 nM
21,"Cn1nc(C(=O)CCC2CCN(Cc3ccccc3Cl)CC2)c2ccccc21 [Compound No. 2-96, 1-Methyl-3-{3-[1-(2-chlorobenzyl)-4-piperidyl]propionyl}indazole hydrochloride]",13.9 nM
22,"Cn1nc(C(=O)CCC2CCN(Cc3cccc(Cl)c3)CC2)c2ccccc21 [Compound No. 2-99, 1-Methyl-3-{3-[1-(3-chlorobenzyl)-4-piperidyl]-propionyl}indazole hydrochloride]",31.7 nM
